Reference: ChEMBL document CHEMBL1201862, “PubChem BioAssay data set” (2004)
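Following 48 hours of exposure in 96-well plates, responses at five concentrations were used to interpolate endpoints linearly. GI50 is the concentration that inhibits growth by half.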 Active and inactive are the calls of the source. Cut-off read from the data, not from the text of the source: active = GI50 up to about 1.1 µM and inactive = higher.

Tests used:
Assay in all cases: DTP human tumour cell line panel, 48 h
SN12C = test system: SN12C
SNB-19 = test system: SNB-19
HT-29 = test system: HT-29
SF-268 = test system: SF-268
CAKI-1 = test system: CAKI-1
TK-10 = test system: TK-10
A549 = test system: A549
SF-295 = test system: SF-295
HOP-92 = test system: HOP-92
HCT-15 = test system: HCT-15
NCI-H23 = test system: NCI-H23
ACHN = test system: ACHN
K562 = test system: K562
HOP-62 = test system: HOP-62
SF-539 = test system: SF-539
CCRF-CEM = test system: CCRF-CEM
HCC 2998 = test system: HCC 2998

| Compound | GI50 (SN12C) | GI50 (SNB-19) | GI50 (HT-29) | GI50 (SF-268) | GI50 (CAKI-1) | GI50 (TK-10) | GI50 (A549) | GI50 (SF-295) | GI50 (HOP-92) | GI50 (HCT-15) [µM] | GI50 (NCI-H23) | GI50 (ACHN) | GI50 (K562) | GI50 (HOP-62) | GI50 (SF-539) | GI50 (CCRF-CEM) | GI50 (HCC 2998) |
| --- | --- | --- | --- | --- | --- | --- | --- | --- | --- | --- | --- | --- | --- | --- | --- | --- | --- |
| CN(C(=O)c1cccs1)C(=S)N1CCN(c2ccccn2)CC1 | > 100 µM (inactive) | > 100 µM (inactive) | > 100 µM (inactive) | > 100 µM (inactive) | > 100 µM (inactive) | > 100 µM (inactive) | > 100 µM (inactive) | > 100 µM (inactive) | > 100 µM (inactive) | > 100 | > 100 µM (inactive) | > 100 µM (inactive) | > 100 µM (inactive) | > 100 µM (inactive) | > 100 µM (inactive) | > 100 µM (inactive) | – |
| CCOC(=O)C1COc2cc(-c3cc(=O)c4ccccc4o3)ccc2O1 (stereo unspecified) | 29.5 µM (inactive) | > 100 µM (inactive) | 22.8 µM (inactive) | > 100 µM (inactive) | > 100 µM (inactive) | > 100 µM (inactive) | > 100 µM (inactive) | > 100 µM (inactive) | 10.4 µM (inactive) | – | > 100 µM (inactive) | > 100 µM (inactive) | > 100 µM (inactive) | – | 30.5 µM (inactive) | > 100 µM (inactive) | > 100 µM (inactive) |
| CC(C)(Oc1ccc(C(=O)c2ccc(Cl)cc2)cc1Cl)C(=O)Nc1c(Cl)cccc1Cl | – | > 100 µM (inactive) | > 100 µM (inactive) | > 100 µM (inactive) | > 100 µM (inactive) | > 100 µM (inactive) | > 100 µM (inactive) | > 100 µM (inactive) | > 100 µM (inactive) | > 100 | > 100 µM (inactive) | – | 5.64 µM (inactive) | > 100 µM (inactive) | > 100 µM (inactive) | > 100 µM (inactive) | – |
| O=c1sc(-c2nc3ccccc3[nH]2)c(/N=C/c2ccccc2)n1-c1ccccc1 | 73.3 µM (inactive) | 53.7 µM (inactive) | > 100 µM (inactive) | 91.4 µM (inactive) | > 100 µM (inactive) | 62.8 µM (inactive) | 57.4 µM (inactive) | 40.9 µM (inactive) | – | 74.1 | > 100 µM (inactive) | 65.2 µM (inactive) | 75 µM (inactive) | 27.9 µM (inactive) | 26.3 µM (inactive) | > 100 µM (inactive) | > 100 µM (inactive) |
| CC(=O)c1ccc(N2C(=O)C3c4[nH]c5ccccc5c4C4CCC(C(C)(C)C)CC4C3C2=O)cc1 (stereo unspecified) | 18.5 µM (inactive) | 62.2 µM (inactive) | 17.3 µM (inactive) | 17.3 µM (inactive) | – | – | 19.6 µM (inactive) | 28.7 µM (inactive) | 20.8 µM (inactive) | 29.3 | 19.2 µM (inactive) | 28.3 µM (inactive) | 35.7 µM (inactive) | 19.5 µM (inactive) | 20.3 µM (inactive) | 36.3 µM (inactive) | 20.7 µM (inactive) |
